Experimental data: PubChem BioAssay (NCI)
“And” between values parts separate entries of the source, which are not always exact repeats. Equal entries are not always repeated.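 Interpolation was linear, between the two tested concentrations surrounding the appropriate level; five concentrations were tested over 48 hours in 96-well plates. At the GI50, growth is halved. TGI is the concentration that stops growth completely.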

How the values were obtained:
Test in all cases: NCI anticancer screen, dose series, 48 h
MCF7 breast = tested on: MCF7 breast
UACC-62 melanoma = tested on: UACC-62 melanoma
NCI-H23 lung = tested on: NCI-H23 lung
SK-OV-3 ovarian = tested on: SK-OV-3 ovarian
LOX IMVI melanoma = tested on: LOX IMVI melanoma
SNB-19 CNS = tested on: SNB-19 CNS
DU-145 prostate = tested on: DU-145 prostate
SN12C renal = tested on: SN12C renal
OVCAR-8 ovarian = tested on: OVCAR-8 ovarian
NCI-H522 lung = tested on: NCI-H522 lung

Row | Compound | GI50 (MCF7 breast) | TGI (MCF7 breast) | GI50 (UACC-62 melanoma) | TGI (UACC-62 melanoma) | GI50 (NCI-H23 lung) | TGI (NCI-H23 lung) | GI50 (SK-OV-3 ovarian) | TGI (SK-OV-3 ovarian) | GI50 (LOX IMVI melanoma) | TGI (LOX IMVI melanoma) | GI50 (SNB-19 CNS) | TGI (SNB-19 CNS) | GI50 (DU-145 prostate) | TGI (DU-145 prostate) | GI50 (SN12C renal) | TGI (SN12C renal) | TGI (OVCAR-8 ovarian) | TGI (NCI-H522 lung) | GI50 (OVCAR-8 ovarian) | GI50 (NCI-H522 lung)
1 | C[C@H]1[C@H](C)CC[C@]2(C(=O)NCCNCCN)CC[C@]3(C)C(=CC[C@@H]4[C@@]5(C)CCC(=O)C(C)(C)[C@@H]5CC[C@]43C)[C@H]12 | 1.7 µM | 3.25 µM | 1.6 µM | 2.96 µM | 2.8 µM | 8.3 µM | 6.91 µM | 33.2 µM | 1.71 µM | 3.13 µM | 1.67 µM | 3.11 µM | 1.8 µM | 3.35 µM | 1.61 µM | 2.98 µM | – | – | – | –
2 | Cc1ccc2nc3c(Cl)c(C)c(=O)cc-3sc2c1 | – | – | 27.8 µM | > 1 µM and 92.2 µM | 23.7 µM | > 100 µM | > 100 µM | > 100 µM | – | > 100 µM | > 100 µM | > 100 µM | – | – | 69 µM | > 100 µM | > 100 µM | > 100 µM | – | –
3 | c1ccc(Cn2cnc3ccc(-c4nc(-c5ccc6c(c5)ncn6C5CCCCC5)cn5ccnc45)cc32)cc1 | 2.72 µM | > 100 µM | – | – | 1.88 µM | 4.49 µM | – | – | – | – | 4.54 µM | > 100 µM | 3.04 µM | 21 µM | – | – | 6.54 µM | 5.09 µM | 2.6 µM | 2.03 µM
4 | CC1(Cc2ccccc2)NC(=S)NC1=O (stereo not given) | – | – | – | – | – | > 100 µM | – | – | – | > 100 µM | – | > 100 µM | – | – | – | > 100 µM | > 100 µM | > 100 µM | – | –
5 | COc1cc2cnc3c4ccccc4ccc3c2cc1OC | – | – | – | > 100 µM | – | > 100 µM | – | > 100 µM | – | – | – | > 100 µM | – | – | – | > 100 µM | > 100 µM | > 100 µM | – | –
6 | CC1(C)OC2COC3(CNO)OC(C)(C)OC3C2O1 (stereo not given) | – | – | – | > 100 µM | – | > 100 µM | – | > 100 µM | – | > 100 µM | – | > 100 µM | – | – | – | > 100 µM | > 100 µM | – | – | –
7 | CC(C)c1ccccc1NC(=O)/C(Cl)=C1/Sc2ccccc2NC1=O | – | – | – | > 100 µM | – | 70.8 µM | – | 66.6 µM | – | > 100 µM | – | > 100 µM | – | – | – | > 100 µM | > 100 µM | 51.8 µM | – | –
8 | COc1ccc(Nc2nc3ccccc3nc2-c2cccs2)cc1 | – | – | – | > 100 µM | – | > 100 µM | – | > 100 µM | – | > 100 µM | – | > 100 µM | – | – | – | > 100 µM | > 100 µM | > 100 µM | – | –
9 | CC1=C(C(=O)Nc2ccccc2C)C(/C=C/c2ccccc2)C(C(=O)Nc2ccccc2C)=C(C)N1 | – | – | – | > 100 µM | – | > 100 µM | – | > 100 µM | – | > 100 µM | – | > 100 µM | – | – | – | > 100 µM | > 100 µM | > 100 µM | – | –
10 | C[n+]1c2ccccc2cc2c(CNC(CCCN=C(N)N)C(=O)O)cccc21 (stereo not given) | – | – | – | 2.32 µM | 4.19 µM | 18.4 µM | 6.15 µM | 17.9 µM | – | 1.92 µM | – | – | – | – | – | 2.18 µM and 2.99 µM | 5.11 µM and 7.74 µM | 2.78 µM and 0.342 µM | 2.42 µM | 0.157 µM
11 | CC(=O)[CH-]C(C)=O.[CH2-]C.[CH2-]C.[Tl+3] | – | – | > 100 µM | > 100 µM | > 100 µM | > 100 µM | > 100 µM | > 100 µM | > 100 µM | > 100 µM | > 100 µM | > 100 µM | – | – | > 100 µM | > 100 µM | > 100 µM | > 100 µM | > 100 µM | > 100 µM
12 | O=C1C2=C(c3ccccc31)C(c1ccccc1Cl)N1C(=O)CCSC1=N2 (stereo not given) | – | – | – | > 100 µM | – | > 100 µM | – | > 100 µM | – | – | – | > 100 µM | – | – | – | > 100 µM | > 100 µM | > 100 µM | – | –
13 | CC(=O)OC1COC(n2c(=S)n(-c3ccccc3)c(=O)c3cc(Br)ccc32)C(OC(C)=O)C1OC(C)=O (stereo not given) | – | – | – | > 100 µM | – | > 100 µM | – | > 100 µM | – | > 100 µM | – | 77.3 µM | – | – | – | > 100 µM | > 100 µM | > 100 µM | – | –
14 | COc1cccc(/C=C2\CCC(C)(CN(C)C)C2=O)c1 (stereo not given) | – | – | – | > 100 µM | – | > 100 µM | – | – | – | > 100 µM | – | > 100 µM | – | – | – | > 100 µM | > 100 µM | 91.6 µM | – | –
15 | O=C(NC12CC3CC(CC(C3)C1)C2)C(=O)c1c[nH]c2ccc(Cl)cc12 | – | – | – | > 100 µM | – | > 100 µM | – | > 100 µM | – | 84.8 µM | – | > 100 µM | – | – | – | > 100 µM | – | > 100 µM | – | –
16 | Cc1ccc(S(=O)(=O)N/N=C(\c2nc3ccc([N+](=O)[O-])cc3[nH]c2=O)C(O)c2ccccc2Cl)cc1 (stereo not given) | – | – | – | > 100 µM | – | > 100 µM | – | > 100 µM | – | > 100 µM | – | > 100 µM | – | – | – | > 100 µM | > 100 µM | 82.6 µM | – | –
17 | CC(CC(=O)Nc1ccc(NC(=O)CC(C)N=NC(N)=S)cc1)N=NC(N)=S (stereo not given) | – | – | – | > 100 µM | – | > 100 µM | – | – | – | > 100 µM | – | > 100 µM | – | – | – | > 100 µM | > 100 µM | – | – | –
18 | NC(=O)/C=C/C(=O)O | – | – | – | > 5000 µM | – | > 5000 µM | – | > 5000 µM | – | > 5000 µM | – | – | – | – | – | > 5000 µM | > 5000 µM | > 5000 µM | – | –
19 | O=C1C(SCCO)=C(SCCO)C(=O)c2ccccc21 | – | 2.36 µM | – | 2.84 µM | – | 2.44 µM | – | 3.08 µM | – | 0.812 µM | – | 3.23 µM | – | – | – | 3.06 µM | 1.22 µM | 3.56 µM | – | –
20 | CCN(CC)CC(=O)N1CCc2c([nH]c3ccccc23)C1c1cccnc1 (stereo not given) | – | – | – | > 100 µM | – | > 100 µM | – | > 100 µM | – | > 100 µM | – | > 100 µM | – | – | – | > 100 µM | > 100 µM | > 100 µM | – | –
21 | O=C1C=C(O)c2[nH]c(=O)ccc2C1=O | – | – | – | > 100 µM | – | > 100 µM | – | > 100 µM | – | > 100 µM | – | > 100 µM | – | – | – | > 100 µM | > 100 µM | > 100 µM | – | –
22 | Cn1c(/C(C#N)=C/c2ccc3ccccc3c2)cc2ccccc21 | 0.0946 µM | > 100 µM | 0.0425 µM | > 100 µM | 0.392 µM | > 100 µM | > 100 µM | > 100 µM | 0.12 µM | > 100 µM | 0.256 µM | > 100 µM | 0.456 µM | > 100 µM | 0.389 µM | > 100 µM | > 100 µM | – | 0.421 µM | –
